Assay results from patent US20060128577A1, “Use of alkoxylated hydroxycarboxylic acid esters for solubilizing perfume oils in water” (priority 2004, published 2006).

Assay: Solubilizing effect of surfactants for perfume oil in water (10% by weight aqueous surfactant solution, perfume oil quantity before clouding)
Assay type: physicochemical
Conditions: 10% by weight aqueous solution of surfactant, higher = better solubilizing effect
Procedure: 1. In order to test the effect according to the invention, a 10% by weight aqueous solution of various surfactants was prepared. To this end, the surfactant was first mixed with the perfume oil and water was then added. The higher the percentage content of perfume oil, the better the solubilizing effect of the surfactant. In Table 1 below, V stands for known products and E for alkoxylated esters according to the invention.
Examples E1 and E2 according to the invention use a citric acid ester as described in 1.1 or 1.2.

Substance: 2-Hydroxy-C12-(PO)1-(EO)9-glycol ether [Example V1a]
- Quantity (% by wt.) before clouding (perfume oil: Lemon oil terpene): 4 % by wt.
- Quantity (% by wt.) before clouding (perfume oil: Octyl aldehyde): 2 % by wt.
- Quantity (% by wt.) before clouding (perfume oil: Orange oil): 4 % by wt.
